Results: patent US11179722B2, “Microfluidic method for handling microdrops” (ECOLE POLYTECHNIQUE, priority 2016, dated 2021)

Test system: rat hepatoma, H4IIEC3 cells
Assay type: cell-based
Method: An experiment was conducted to determine, in a single microfluidic system, the concentration beyond which a medicinal product (acetaminophen) becomes toxic to liver cells (rat hepatoma, H4IIEC3 cells).
The microfluidic chamber used containing 252 identical traps on 2 cm^2 in FIGS. 5A and 5B.
The first microdrops 20 of agarose that is liquid at 37° C. (ultra-low gelling), at 0.9 wt % diluted in culture medium containing H4IIEC3 cells, were trapped in the first trapping zones 15, the second trapping zone 18 remaining free. The first microdrops 20 were then cultured for one day to allow the cells to adhere to one another to form a spheroid by first microdrops 20. […]
By taking a fluorescence image before fusion, the different levels of fluorescence that are correlated with the concentration of medicinal product in the second microdrops 25 could be identified. […]
The chamber was perfused with HFE-7500 (fluorinated oil) containing 1H,1H,2H,2H-perfluorooctan-1-ol at a concentration of 20 vol % in order to fuse the microdrops in contact. […] By taking an image of the final matrix, the spheroids whose viability was affected most could be determined. […] Thus, correlating the result for viability and the concentration of acetaminophen in the second microdrops, it could be determined that the range of toxicity of acetaminophen on these hepatic cells is between 10 and 30 mmol/L for a static exposure of 1 day.

CC(=O)Nc1ccc(O)cc1 [acetaminophen]
cell survival as a function of acetaminophen concentration: the higher the concentration of acetaminophen, the fewer cells survive | range of toxicity of acetaminophen on these hepatic cells (rat, 1 day): 10 and 30
